In ChEMBL document CHEMBL5678800 (Mol Cancer Ther, 2009):
pIC50: −log10 of the molar value.

Tests used:
GEO [1] = test: Antitumor activity against human GEO cells xenografted in nude mouse assessed as tumor growth inhibition at 25 mg/kg, po administered for 3 days in presence of cetuximab at 0.125 mg/kg relative to control; assay type: functional; details: 72 h, time 3 day, read-out: TGI
GEO [2] = test: Antitumor activity against human GEO cells xenografted in nude mouse assessed as tumor growth inhibition at 25 mg/kg, po administered for 17 days relative to control; assay type: functional; details: 408 h, time 17 day, read-out: TGI
[3] = Antitumor activity against mouse IGF-1R-Sal cells xenografted in nude mouse assessed as tumor growth inhibition at 6.25 to 150 mg/kg, po administered for 4 days relative to control; assay type: functional; details: dose 6.25-150 mg/kg, time 4 day
GEO [4] = test: Antitumor activity against human GEO cells xenografted in nude mouse assessed as tumor growth delay time at 25 mg/kg, po administered for 17 days relative to control; assay type: functional; details: time 17 day
[5] = Toxicity in nude mouse xenografted with human GEO cells assessed as mortality at 6.25 mg/kg, po administered for 3 days in presence of cetuximab at 0.125 mg/kg relative to control; assay type: organism-based; details: in vivo, time 3 day
[6] = molecular target: Protein kinase C alpha type (Homo sapiens, UniProt P17252); test: Inhibition of recombinant PKCalpha (unknown origin) incubated for 60 mins in presence of ATP by electrophoretic caliper fluorescence analysis
Rh41 = test: Induction of cell cycle arrest in human Rh41 cells assessed as accumulation of cells at G2/M phase at 10x IC50 incubated for 48 hrs by propidium iodide staining based flow cytometry analysis relative to control; assay type: functional

`C[C@@]1(C(=O)Nc2ccc(F)nc2)CCCN1c1nc(Nc2cc(C3CC3)n[nH]2)c2cccn2n1` [BMS-754807] showed an inhibition in vivo at 25 mg/kg (GEO [1]) of 89%, an inhibition in vivo at 25 mg/kg (GEO [2]) of 61% and a TGI [3] of 67%. For the same compound, the Time (GEO [4]) was 7 days, the mortality at 72 h [5] was 0% and the pIC50 [6] was 5.60. It also gave an Activity (Rh41) of 2.8%.
